Measurements taken from ChEMBL document CHEMBL3046874, “Synthesis and biological evaluation of chalcones and acetyl pyrazoline derivatives comprising furan nucleus as an antitubercular agents” (2012).

What was measured:
Type in all cases: functional
[1] = test system: Mycobacterium tuberculosis; experiment: Growth inhibition of Mycobacterium tuberculosis H37Rv at 6.25 ug/ml by radiometric anlaysis; settings: read-out: GI
[2] = test system: Aspergillus niger; experiment: Antifungal activity against Aspergillus niger ATCC 9029 after 7 days by agar plate method
[3] = test system: Proteus vulgaris; experiment: Antibacterial activity against Proteus vulgaris ATCC 29905 after 24 hr by agar well diffusion method
[4] = test system: Escherichia coli; experiment: Antibacterial activity against Escherichia coli ATCC 25922 after 24 hr by agar well diffusion method
[5] = test system: Priestia megaterium; experiment: Antibacterial activity against Bacillus megaterium ATCC 14518 after 24 hr by agar well diffusion method
[6] = test system: Staphylococcus aureus; experiment: Antibacterial activity against Staphylococcus aureus ATCC 25923 after 24 hr by agar well diffusion method
[7] = test system: Mycobacterium tuberculosis; experiment: Growth inhibition of Mycobacterium tuberculosis H37Rv at 0.25 ug/ml by radiometric anlaysis; settings: read-out: GI

SMILES | inhibition of growth at 6.25 µg/mL [1] | diameter of the inhibition zone (DIZ) [2] | inhibition zone (IZ) [3] | inhibition zone (IZ) [4] | inhibition zone (IZ) [5] | inhibition zone (IZ) [6] | inhibition of growth at 0.25 µg/mL [7]
COc1ccc(C2=NN(C(C)=O)C(c3ccc(-c4ccc(Cl)c(Cl)c4)o3)C2)cc1 (configuration not stated) | 0% | 19 mm | 14 mm | 20 mm | 12 mm | 19 mm | –
CO[C@H]1/C=C/O[C@@]2(C)Oc3c(C)c(O)c4c(O)c(c(/C=N/N5CCN(C)CC5)c(O)c4c3C2=O)NC(=O)/C(C)=C\C=C\[C@H](C)[C@H](O)[C@@H](C)[C@@H](O)[C@@H](C)[C@H](OC(C)=O)[C@@H]1C [RIFAMPIN] | – | – | – | – | – | – | 98%
CC(=O)N1N=C(c2cccc([N+](=O)[O-])c2)CC1c1ccc(-c2ccc(Cl)c(Cl)c2)o1 (configuration not stated) | 6% | 17 mm | 13 mm | 17 mm | 13 mm | 14 mm | –
CC1(C)S[C@@H]2[C@H](NC(=O)[C@H](N)c3ccc(O)cc3)C(=O)N2[C@H]1C(=O)O [AMOXICILLIN] | – | 0 mm | 20 mm | 18 mm | 24 mm | 22 mm | –
CC1(C)S[C@@H]2[C@H](NC(=O)[C@H](N)c3ccccc3)C(=O)N2[C@H]1C(=O)O [AMPICILLIN] | – | 0 mm | 17 mm | 19 mm | 22 mm | 20 mm | –
O=C(/C=C/c1ccc(-c2ccc(Cl)c(Cl)c2)o1)c1ccccc1O | – | 18 mm | 11 mm | 14 mm | 12 mm | 16 mm | –
COC1=CC(=O)C[C@@H](C)[C@]12Oc1c(Cl)c(OC)cc(OC)c1C2=O [GRISEOFULVIN] | – | 26 mm | 0 mm | 0 mm | 0 mm | 0 mm | –
Nc1cccc(C(=O)/C=C/c2ccc(-c3ccc(Cl)c(Cl)c3)o2)c1 | – | 17 mm | 17 mm | 16 mm | 14 mm | 19 mm | –
COc1ccc(C(=O)/C=C/c2ccc(-c3ccc(Cl)c(Cl)c3)o2)cc1 | – | 19 mm | 19 mm | 12 mm | 13 mm | 20 mm | –
CC(=O)N1N=C(c2ccc(C)cc2)CC1c1ccc(-c2ccc(Cl)c(Cl)c2)o1 (configuration not stated) | 0% | 20 mm | 19 mm | 12 mm | 19 mm | 21 mm | –
O=C(/C=C/c1ccc(-c2ccc(Cl)c(Cl)c2)o1)c1ccc(Br)cc1 | – | 21 mm | 16 mm | 20 mm | 21 mm | 19 mm | –
CC(=O)N1N=C(c2ccc(Br)cc2)CC1c1ccc(-c2ccc(Cl)c(Cl)c2)o1 (configuration not stated) | 6% | 18 mm | 19 mm | 11 mm | 20 mm | 12 mm | –
CC(=O)N1N=C(c2cccc(N)c2)CC1c1ccc(-c2ccc(Cl)c(Cl)c2)o1 (configuration not stated) | 4% | 17 mm | 15 mm | 15 mm | 14 mm | 13 mm | –
Cc1ccc(C(=O)/C=C/c2ccc(-c3ccc(Cl)c(Cl)c3)o2)cc1 | – | 13 mm | 14 mm | 19 mm | 22 mm | 13 mm | –
CC(=O)N1N=C(c2ccc(N)cc2)CC1c1ccc(-c2ccc(Cl)c(Cl)c2)o1 (configuration not stated) | 74% | 19 mm | 12 mm | 17 mm | 17 mm | 17 mm | –
CC(=O)N1N=C(c2ccc(Cl)cc2)CC1c1ccc(-c2ccc(Cl)c(Cl)c2)o1 (configuration not stated) | 17% | 21 mm | 18 mm | 19 mm | 21 mm | 16 mm | –
CC(=O)N1N=C(c2ccccc2)CC1c1ccc(-c2ccc(Cl)c(Cl)c2)o1 (configuration not stated) | 0% | 13 mm | 17 mm | 18 mm | 17 mm | 20 mm | –
O=C(/C=C/c1ccc(-c2ccc(Cl)c(Cl)c2)o1)c1ccc(F)cc1 | – | 14 mm | 14 mm | 16 mm | 17 mm | 12 mm | –
CC1(C)S[C@@H]2[C@H](NC(=O)Cc3ccccc3)C(=O)N2[C@H]1C(=O)O [PENICILLIN G] | – | 0 mm | 23 mm | 22 mm | 25 mm | 24 mm | –
O=C(/C=C/c1ccc(-c2ccc(Cl)c(Cl)c2)o1)c1ccc([N+](=O)[O-])cc1 | – | 19 mm | 15 mm | 12 mm | 11 mm | 17 mm | –
CC(=O)N1N=C(c2ccccc2O)CC1c1ccc(-c2ccc(Cl)c(Cl)c2)o1 (configuration not stated) | 11% | 15 mm | 11 mm | 13 mm | 18 mm | 16 mm | –
O=C(/C=C/c1ccc(-c2ccc(Cl)c(Cl)c2)o1)c1ccc(Cl)cc1 | – | 14 mm | 15 mm | 14 mm | 15 mm | 20 mm | –
CCn1cc(C(=O)O)c(=O)c2cc(F)c(N3CCNCC3)cc21 [NORFLOXACIN] | – | 0 mm | 21 mm | 20 mm | 23 mm | 19 mm | –
O=C(/C=C/c1ccc(-c2ccc(Cl)c(Cl)c2)o1)c1ccccc1 | – | 19 mm | 15 mm | 19 mm | 20 mm | 14 mm | –
O=C(/C=C/c1ccc(-c2ccc(Cl)c(Cl)c2)o1)c1cccc([N+](=O)[O-])c1 | – | 17 mm | 17 mm | 11 mm | 19 mm | 16 mm | –
CC(=O)N1N=C(c2ccc([N+](=O)[O-])cc2)CC1c1ccc(-c2ccc(Cl)c(Cl)c2)o1 (configuration not stated) | 19% | 13 mm | 14 mm | 14 mm | 16 mm | 12 mm | –
Nc1ccc(C(=O)/C=C/c2ccc(-c3ccc(Cl)c(Cl)c3)o2)cc1 | – | 18 mm | 12 mm | 13 mm | 17 mm | 12 mm | –
CC(=O)N1N=C(c2ccc(F)cc2)CC1c1ccc(-c2ccc(Cl)c(Cl)c2)o1 (configuration not stated) | 1% | 17 mm | 13 mm | 12 mm | 13 mm | 13 mm | –
